Assay results taken from publication PMC11288027, “Exploring novel microbial metabolites and drugs for inhibiting Clostridioides difficile” (mSphere, 2024).
Values joined by “and” are separate entries in the source; they are usually repeats but may differ in a detail not shown here. Equal values may be shown once.

Test system: C. difficile ATCC BAA-1870
Assay: MIC of active hits by broth microdilution
Details: C. difficile ATCC BAA-1870, 48 h anaerobic; for MIC: Clostridioides difficile, ATCCBAA1870, 48 h

Molecule | MIC (μM) | MIC (μg/mL) | MIC
Ivermectin | 16 µM | 14 µg/mL | –
CC(C)=CCC[C@](C)(O[C@@H]1O[C@H](CO)[C@@H](O)[C@H](O)[C@H]1O)[C@H]1CC[C@]2(C)[C@@H]1[C@H](O)C[C@@H]1[C@@]3(C)CC[C@H](O)C(C)(C)[C@@H]3CC[C@]12C [Ginsenoside C-K] | – | – | 16 µM and 9.97 µg/mL
Cc1cc(SCc2sc(-c3ccc(C(F)(F)F)cc3)nc2C)ccc1OCC(=O)O [GW 501516] | – | – | 16 µM and 14.5 µg/mL
